# Laboratory results from the supplement of paper PMC10307832.
# How the values were obtained:
# Experiment in all cases: relative viability (nuclei count vs DMSO), 5 days (fraction); higher = more cells survive
# NCI-H520 = test system: NCI-H520
# In short: (§1)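 After 5 days of treatment, lung cancer cells in 1536-well plates were fixed and stained in a single step (final 0.05% Triton X-100, 1% formaldehyde, 1 ug/ml Hoechst) and their nuclei counted on 4× images. Treatment had been applied by pin tool the day after seeding as one drug alone or as a fixed anchor-drug dose with five library-drug doses (not always all listed) in √10 steps. Relative viability is the nuclei count of treated wells divided by that of vehicle wells, and values are medians of duplicate plates.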
# NCI-H1666 = test system: NCI-H1666
# In short: as §1
# HOP-62 = test system: HOP-62
# In short: as §1
# NCI-H1355 = test system: NCI-H1355
# In short: as §1
# HCC-827 = test system: HCC-827
# In short: as §1
# LU99A = test system: LU99A
# In short: as §1
# NCI-H838 = test system: NCI-H838
# In short: as §1
# NCI-H23 = test system: NCI-H23
# In short: as §1
# NCI-H596 = test system: NCI-H596
# In short: as §1
# EPLC-272H = test system: EPLC-272H
# In short: as §1
# PC-14 = test system: PC-14
# In short: as §1
# NCI-H322M = test system: NCI-H322M
# In short: as §1
# NCI-H2405 = test system: NCI-H2405
# In short: as §1
# NCI-H1975 = test system: NCI-H1975
# In short: as §1
# NCI-H3122 = test system: NCI-H3122
# In short: as §1
# NCI-H647 = test system: NCI-H647
# In short: as §1
# NCI-H727 = test system: NCI-H727
# In short: as §1
# NCI-H2170 = test system: NCI-H2170
# In short: as §1
# UMC-11 = test system: UMC-11
# In short: as §1
# BEN = test system: BEN
# In short: as §1
# NCI-H358 = test system: NCI-H358
# In short: as §1
# ABC-1 = test system: ABC-1
# In short: as §1
structure (smiles),measurement,setting,value
O=c1[nH]c2ccccc2n1C1CCN(CCCC(c2ccc(F)cc2)c2ccc(F)cc2)CC1 [Pimozide] + Cc1cc(Nc2cc(N3CCN(C)CC3)nc(Sc3ccc(NC(=O)C4CC4)cc3)n2)n[nH]1 [Tozasertib] (partner 0.1 µM),relative viability,NCI-H520; first compound 0.08 µM,0.503
same,relative viability,NCI-H520; first compound 0.253 µM,0.422
same,relative viability,NCI-H520; first compound 0.8 µM,0.42
same,relative viability,NCI-H520; first compound 2.53 µM,0.435
same,relative viability,NCI-H520; first compound 8 µM,0.366
same,relative viability,NCI-H1666; first compound 0.08 µM,0.628
same,relative viability,NCI-H1666; first compound 0.253 µM,0.571
same,relative viability,NCI-H1666; first compound 0.8 µM,0.648
same,relative viability,NCI-H1666; first compound 2.53 µM,0.559
same,relative viability,NCI-H1666; first compound 8 µM,0.476
same,relative viability,HOP-62; first compound 0.08 µM,0.344
same,relative viability,HOP-62; first compound 0.253 µM,0.353
same,relative viability,HOP-62; first compound 2.53 µM,0.331
same,relative viability,HOP-62; first compound 8 µM,0.321
same,relative viability,NCI-H1355; first compound 0.08 µM,0.569
same,relative viability,NCI-H1355; first compound 0.253 µM,0.534
same,relative viability,NCI-H1355; first compound 0.8 µM,0.462
same,relative viability,NCI-H1355; first compound 2.53 µM,0.376
same,relative viability,NCI-H1355; first compound 8 µM,0.414
same,relative viability,HCC-827; first compound 0.253 µM,0.387
same,relative viability,HCC-827; first compound 0.8 µM,0.368
same,relative viability,HCC-827; first compound 2.53 µM,0.385
same,relative viability,HCC-827; first compound 8 µM,0.405
same,relative viability,LU99A; first compound 0.08 µM,0.244
same,relative viability,LU99A; first compound 0.253 µM,0.277
same,relative viability,LU99A; first compound 0.8 µM,0.27
same,relative viability,LU99A; first compound 2.53 µM,0.304
same,relative viability,LU99A; first compound 8 µM,0.256
same,relative viability,NCI-H838; first compound 0.08 µM,0.271
same,relative viability,NCI-H838; first compound 0.253 µM,0.287
same,relative viability,NCI-H838; first compound 0.8 µM,0.31
same,relative viability,NCI-H838; first compound 2.53 µM,0.276
same,relative viability,NCI-H838; first compound 8 µM,0.323
same,relative viability,NCI-H23; first compound 0.08 µM,0.386
same,relative viability,NCI-H23; first compound 0.253 µM,0.396
same,relative viability,NCI-H23; first compound 0.8 µM,0.348
same,relative viability,NCI-H23; first compound 2.53 µM,0.336
same,relative viability,NCI-H23; first compound 8 µM,0.314
same,relative viability,NCI-H596; first compound 0.08 µM,0.929
same,relative viability,NCI-H596; first compound 0.253 µM,0.959
same,relative viability,NCI-H596; first compound 0.8 µM,0.893
same,relative viability,NCI-H596; first compound 2.53 µM,0.839
same,relative viability,NCI-H596; first compound 8 µM,0.882
same,relative viability,EPLC-272H; first compound 0.08 µM,0.193
same,relative viability,EPLC-272H; first compound 0.253 µM,0.241
same,relative viability,EPLC-272H; first compound 0.8 µM,0.33
same,relative viability,EPLC-272H; first compound 2.53 µM,0.176
same,relative viability,EPLC-272H; first compound 8 µM,0.189
same,relative viability,PC-14; first compound 0.253 µM,0.539
same,relative viability,PC-14; first compound 0.8 µM,0.481
same,relative viability,PC-14; first compound 2.53 µM,0.519
same,relative viability,PC-14; first compound 8 µM,0.552
same,relative viability,NCI-H322M; first compound 0.253 µM,0.51
same,relative viability,NCI-H322M; first compound 0.8 µM,0.523
same,relative viability,NCI-H322M; first compound 2.53 µM,0.515
same,relative viability,NCI-H322M; first compound 8 µM,0.425
same,relative viability,NCI-H2405; first compound 0.08 µM,0.754
same,relative viability,NCI-H2405; first compound 0.253 µM,0.712
same,relative viability,NCI-H2405; first compound 0.8 µM,0.683
same,relative viability,NCI-H2405; first compound 2.53 µM,0.673
same,relative viability,NCI-H2405; first compound 8 µM,0.575
same,relative viability,NCI-H1975; first compound 0.08 µM,0.766
same,relative viability,NCI-H1975; first compound 0.253 µM,0.67
same,relative viability,NCI-H1975; first compound 0.8 µM,0.717
same,relative viability,NCI-H1975; first compound 2.53 µM,0.618
same,relative viability,NCI-H1975; first compound 8 µM,0.714
same,relative viability,NCI-H3122; first compound 0.08 µM,0.397
same,relative viability,NCI-H3122; first compound 0.253 µM,0.386
same,relative viability,NCI-H3122; first compound 0.8 µM,0.353
same,relative viability,NCI-H3122; first compound 2.53 µM,0.216
same,relative viability,NCI-H3122; first compound 8 µM,0.378
same,relative viability,NCI-H647; first compound 0.08 µM,0.24
same,relative viability,NCI-H647; first compound 0.253 µM,0.327
same,relative viability,NCI-H647; first compound 0.8 µM,0.264
same,relative viability,NCI-H647; first compound 2.53 µM,0.221
same,relative viability,NCI-H647; first compound 8 µM,0.214
same,relative viability,NCI-H727; first compound 0.08 µM,0.734
same,relative viability,NCI-H727; first compound 0.253 µM,0.694
same,relative viability,NCI-H727; first compound 0.8 µM,0.509
same,relative viability,NCI-H727; first compound 2.53 µM,0.65
same,relative viability,NCI-H727; first compound 8 µM,0.496
same,relative viability,NCI-H2170; first compound 0.08 µM,0.752
same,relative viability,NCI-H2170; first compound 0.253 µM,0.734
same,relative viability,NCI-H2170; first compound 0.8 µM,0.651
same,relative viability,NCI-H2170; first compound 2.53 µM,0.653
same,relative viability,NCI-H2170; first compound 8 µM,0.55
same,relative viability,UMC-11; first compound 0.08 µM,0.188
same,relative viability,UMC-11; first compound 0.253 µM,0.201
same,relative viability,UMC-11; first compound 0.8 µM,0.205
same,relative viability,UMC-11; first compound 2.53 µM,0.205
same,relative viability,UMC-11; first compound 8 µM,0.205
same,relative viability,BEN; first compound 0.08 µM,0.465
same,relative viability,BEN; first compound 0.253 µM,0.548
same,relative viability,BEN; first compound 0.8 µM,0.427
same,relative viability,BEN; first compound 2.53 µM,0.471
same,relative viability,BEN; first compound 8 µM,0.422
same,relative viability,NCI-H358; first compound 0.08 µM,0.0997
same,relative viability,NCI-H358; first compound 0.253 µM,0.11
same,relative viability,NCI-H358; first compound 0.8 µM,0.112
same,relative viability,NCI-H358; first compound 2.53 µM,0.108
same,relative viability,NCI-H358; first compound 8 µM,0.106
same,relative viability,ABC-1; first compound 0.08 µM,0.213
same,relative viability,ABC-1; first compound 0.253 µM,0.214
same,relative viability,ABC-1; first compound 0.8 µM,0.184
same,relative viability,ABC-1; first compound 2.53 µM,0.178
same,relative viability,ABC-1; first compound 8 µM,0.203
